Measurements reported in PubChem BioAssay AID248 (DTP/NCI, 2004).
Where “and” joins values, the source holds several entries; their conditions need not be identical. Equal entries are not always repeated. Toxic doses and inconclusive results are not listed.

Tested on: L1210 leukemia ip in BDF1 mice, survival T/C
Assay: NCI In Vivo Anticancer Drug Screen. Data for tumor model L1210 Leukemia (intraperitoneal) in B6D2F1 (BDF1) mice
Conditions: higher = longer survival
Summary of the method: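 Value reflects the ratio of survival in compound-treated mice to survival in vehicle-treated controls, with both groups carrying the same transplanted tumor.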

Nc1nc2n[nH]nc2c(=O)[nH]1
T/C (endpoint: mean survival time, dose: 1.25 mg/kg/injection, schedule: Q01DX015 (ip), vehicle: clinical formulation): 109 % of control | T/C (endpoint: mean survival time, dose: 1.4 mg/kg/injection, schedule: Q01DX Z (ip), vehicle: carboxymethylcellulose (CMC)): 109 % of control | T/C (endpoint: mean survival time, dose: 2.5 mg/kg/injection, schedule: Q01DX015 (ip), vehicle: clinical formulation): 107 % of control | T/C (endpoint: mean survival time, dose: 2.8 mg/kg/injection, schedule: Q01DX Z (ip), vehicle: carboxymethylcellulose (CMC)): 109 % of control | T/C (endpoint: mean survival time, dose: 3.13 mg/kg/injection, schedule: Q01DX010 (ip), vehicle: alkali diluted with saline): 108 % of control and 110 % of control | T/C (endpoint: mean survival time, dose: 5.0 mg/kg/injection, schedule: Q01DX015 (ip), vehicle: clinical formulation): 107 % of control | T/C (endpoint: mean survival time, dose: 5.0 mg/kg/injection, schedule: Q01DX Z (oral), vehicle: carboxymethylcellulose (CMC)): 115 % of control | T/C (endpoint: mean survival time, dose: 5.59 mg/kg/injection, schedule: Q01DX Z (ip), vehicle: carboxymethylcellulose (CMC)): 118 % of control | T/C (endpoint: mean survival time, dose: 6.25 mg/kg/injection, schedule: Q01DX010 (ip), vehicle: alkali diluted with saline): 122 % of control and 123 % of control | T/C (endpoint: mean survival time, dose: 7.5 mg/kg/injection, schedule: Q01DX Z (sc), vehicle: carboxymethylcellulose (CMC)): 112 % of control | T/C (endpoint: mean survival time, dose: 10.0 mg/kg/injection, schedule: Q01DX015 (ip), vehicle: clinical formulation): 117 % of control | T/C (endpoint: mean survival time, dose: 10.0 mg/kg/injection, schedule: Q01DX Z (oral), vehicle: carboxymethylcellulose (CMC)): 103 % of control | T/C (endpoint: mean survival time, dose: 12.5 mg/kg/injection, schedule: Q01DX006 (iv), vehicle: water): 104 % of control | T/C (endpoint: mean survival time, dose: 12.5 mg/kg/injection, schedule: Q01DX Z (im), vehicle: water): 121 % of control | T/C (endpoint: mean survival time, dose: 12.5 mg/kg/injection, schedule: Q01DX Z (ip), vehicle: other): 97 % of control | T/C (endpoint: mean survival time, dose: 15.0 mg/kg/injection, schedule: Q01DX Z (sc), vehicle: carboxymethylcellulose (CMC)): 106 % of control | T/C (endpoint: mean survival time, dose: 20.0 mg/kg/injection, schedule: Q01DX015 (ip), vehicle: water): 101 % of control | T/C (endpoint: mean survival time, dose: 20.0 mg/kg/injection, schedule: Q01DX Z (oral), vehicle: carboxymethylcellulose (CMC)): 95 % of control | T/C (endpoint: mean survival time, dose: 22.35 mg/kg/injection, schedule: Q01DX Z (ip), vehicle: carboxymethylcellulose (CMC)): 152 % of control | T/C (endpoint: mean survival time, dose: 25.0 mg/kg/injection, schedule: Q01DX005 (ip), vehicle: other): 111 % of control | T/C (endpoint: mean survival time, dose: 25.0 mg/kg/injection, schedule: Q01DX006 (iv), vehicle: water): 113 % of control | T/C (endpoint: mean survival time, dose: 25.0 mg/kg/injection, schedule: Q01DX009 (ip), vehicle: saline): 154 % of control and 160 % of control | T/C (endpoint: mean survival time, dose: 25.0 mg/kg/injection, schedule: Q01DX009 (sc), vehicle: carboxymethylcellulose (CMC)): 104 % of control | T/C (endpoint: mean survival time, dose: 25.0 mg/kg/injection, schedule: Q01DX Z (ip), vehicle: other): 106 % of control | T/C (endpoint: mean survival time, dose: 30.0 mg/kg/injection, schedule: Q01DX Z (ip), vehicle: other): 121 % of control | T/C (endpoint: mean survival time, dose: 40.0 mg/kg/injection, schedule: Q01DX009 (ip), vehicle: other): 159 % of control | T/C (endpoint: mean survival time, dose: 40.0 mg/kg/injection, schedule: Q01DX Z (oral), vehicle: carboxymethylcellulose (CMC)): 109 % of control | T/C (endpoint: mean survival time, dose: 44.0 mg/kg/injection, schedule: Q01DX015 (ip), vehicle: water): 98 % of control and 115 % of control | T/C (endpoint: mean survival time, dose: 50.0 mg/kg/injection, schedule: Q01DX001 (ip), vehicle: steriod suspending solution): 117 % of control | T/C (endpoint: mean survival time, dose: 50.0 mg/kg/injection, schedule: Q01DX005 (ip), vehicle: other): 122 % of control | T/C (endpoint: mean survival time, dose: 50.0 mg/kg/injection, schedule: Q01DX009 (ip), vehicle: carboxymethylcellulose (CMC)): 159 % of control | T/C (endpoint: mean survival time, dose: 50.0 mg/kg/injection, schedule: Q01DX009 (ip), vehicle: other): 155 % of control | T/C (endpoint: mean survival time, dose: 50.0 mg/kg/injection, schedule: Q01DX009 (ip), vehicle: saline): 156 % of control and 158 % of control | T/C (endpoint: mean survival time, dose: 50.0 mg/kg/injection, schedule: Q01DX Z (im), vehicle: water): 160 % of control | T/C (endpoint: mean survival time, dose: 50.0 mg/kg/injection, schedule: Q01DX Z (oral), vehicle: other): 93 % of control | T/C (endpoint: mean survival time, dose: 50.0 mg/kg/injection, schedule: Q01DX Z (oral), vehicle: water): 98 % of control | T/C (endpoint: mean survival time, dose: 50.0 mg/kg/injection, schedule: Q01DX Z (sc), vehicle: water): 154 % of control | T/C (endpoint: mean survival time, dose: 60.0 mg/kg/injection, schedule: Q01DX009 (ip), vehicle: other): 152 % of control | T/C (endpoint: mean survival time, dose: 61.0 mg/kg/injection, schedule: Q01DX015 (ip), vehicle: water): 156 % of control | T/C (endpoint: mean survival time, dose: 62.0 mg/kg/injection, schedule: Q01DX001 (ip), vehicle: carboxymethylcellulose (CMC)): 121 % of control | T/C (endpoint: mean survival time, dose: 62.0 mg/kg/injection, schedule: Q01DX001 (sc), vehicle: carboxymethylcellulose (CMC)): 106 % of control | T/C (endpoint: mean survival time, dose: 64.0 mg/kg/injection, schedule: Q## X024 (ip), vehicle: other): 150 % of control | T/C (endpoint: mean survival time, dose: 75.0 mg/kg/injection, schedule: Q01DX009 (ip), vehicle: other): 156 % of control | T/C (endpoint: mean survival time, dose: 75.0 mg/kg/injection, schedule: Q02DX005 (ip), vehicle: carboxymethylcellulose (CMC)): 159 % of control | T/C (endpoint: mean survival time, dose: 87.0 mg/kg/injection, schedule: Q01DX001 (ip), vehicle: water): 115 % of control and 122 % of control | T/C (endpoint: mean survival time, dose: 87.0 mg/kg/injection, schedule: Q07DX Z (ip), vehicle: water): 121 % of control | T/C (endpoint: mean survival time, dose: 89.4 mg/kg/injection, schedule: Q01DX Z (ip), vehicle: carboxymethylcellulose (CMC)): 154 % of control | T/C (endpoint: mean survival time, dose: 90.0 mg/kg/injection, schedule: Q01DX009 (ip), vehicle: other): 150 % of control | T/C (endpoint: mean survival time, dose: 90.0 mg/kg/injection, schedule: Q01DX015 (ip), vehicle: carboxymethylcellulose (CMC)): 155 % of control | T/C (endpoint: mean survival time, dose: 90.0 mg/kg/injection, schedule: Q## X015 (ip), vehicle: carboxymethylcellulose (CMC)): 155 % of control | T/C (endpoint: mean survival time, dose: 100.0 mg/kg/injection, schedule: Q01DX001 (ip), vehicle: steriod suspending solution): 118 % of control | T/C (endpoint: mean survival time, dose: 100.0 mg/kg/injection, schedule: Q01DX009 (ip), vehicle: other): 152 % of control | T/C (endpoint: mean survival time, dose: 100.0 mg/kg/injection, schedule: Q01DX009 (ip), vehicle: water): 154 % of control | T/C (endpoint: mean survival time, dose: 100.0 mg/kg/injection, schedule: Q01DX Z (im), vehicle: water): 160 % of control | T/C (endpoint: mean survival time, dose: 100.0 mg/kg/injection, schedule: Q#A X Z (ip), vehicle: carboxymethylcellulose (CMC)): 115 % of control | T/C (endpoint: mean survival time, dose: 111.75 mg/kg/injection, schedule: Q01DX Z (ip), vehicle: carboxymethylcellulose (CMC)): 160 % of control | T/C (endpoint: mean survival time, dose: 125.0 mg/kg/injection, schedule: Q01DX001 (sc), vehicle: carboxymethylcellulose (CMC)): 109 % of control | T/C (endpoint: mean survival time, dose: 125.0 mg/kg/injection, schedule: Q## X003 (ip), vehicle: carboxymethylcellulose (CMC)): 152 % of control and 155 % of control | T/C (endpoint: mean survival time, dose: 135.0 mg/kg/injection, schedule: Q01DX015 (ip), vehicle: carboxymethylcellulose (CMC)): 152 % of control | T/C (endpoint: mean survival time, dose: 135.0 mg/kg/injection, schedule: Q## X015 (ip), vehicle: carboxymethylcellulose (CMC)): 152 % of control | T/C (endpoint: mean survival time, dose: 150.0 mg/kg/injection, schedule: Q01DX009 (sc), vehicle: carboxymethylcellulose (CMC)): 150 % of control | T/C (endpoint: mean survival time, dose: 150.0 mg/kg/injection, schedule: Q01DX Z (ip), vehicle: carboxymethylcellulose (CMC)): 156 % of control | T/C (endpoint: mean survival time, dose: 175.0 mg/kg/injection, schedule: Q01DX001 (ip), vehicle: water): 119 % of control and 121 % of control | T/C (endpoint: mean survival time, dose: 175.0 mg/kg/injection, schedule: Q07DX Z (ip), vehicle: water): 116 % of control | T/C (endpoint: mean survival time, dose: 200.0 mg/kg/injection, schedule: Q01DX001 (ip), vehicle: steriod suspending solution): 120 % of control | T/C (endpoint: mean survival time, dose: 200.0 mg/kg/injection, schedule: Q01DX009 (ip), vehicle: saline): 102 % of control | T/C (endpoint: mean survival time, dose: 200.0 mg/kg/injection, schedule: Q01DX009 (ip), vehicle: water): 152 % of control and 160 % of control | T/C (endpoint: mean survival time, dose: 200.0 mg/kg/injection, schedule: Q01DX Z (im), vehicle: carboxymethylcellulose (CMC)): 103 % of control | T/C (endpoint: mean survival time, dose: 200.0 mg/kg/injection, schedule: Q01DX Z (sc), vehicle: carboxymethylcellulose (CMC)): 124 % of control | T/C (endpoint: mean survival time, dose: 202.0 mg/kg/injection, schedule: Q01DX009 (ip), vehicle: other): 98 % of control | T/C (endpoint: mean survival time, dose: 202.5 mg/kg/injection, schedule: Q01DX015 (ip), vehicle: carboxymethylcellulose (CMC)): 97 % of control | T/C (endpoint: mean survival time, dose: 202.5 mg/kg/injection, schedule: Q## X015 (ip), vehicle: carboxymethylcellulose (CMC)): 97 % of control | T/C (endpoint: mean survival time, dose: 223.5 mg/kg/injection, schedule: Q01DX Z (ip), vehicle: carboxymethylcellulose (CMC)): 107 % of control | T/C (endpoint: mean survival time, dose: 225.0 mg/kg/injection, schedule: Q01DX015 (ip), vehicle: clinical formulation): 156 % of control | T/C (endpoint: mean survival time, dose: 250.0 mg/kg/injection, schedule: Q01DX001 (sc), vehicle: carboxymethylcellulose (CMC)): 113 % of control | T/C (endpoint: mean survival time, dose: 250.0 mg/kg/injection, schedule: Q06DX003 (ip), vehicle: carboxymethylcellulose (CMC)): 151 % of control | T/C (endpoint: mean survival time, dose: 250.0 mg/kg/injection, schedule: Q## X003 (ip), vehicle: carboxymethylcellulose (CMC)): 155 % of control | T/C (endpoint: mean survival time, dose: 300.0 mg/kg/injection, schedule: Q01DX009 (ip), vehicle: other): 119 % of control | T/C (endpoint: mean survival time, dose: 300.0 mg/kg/injection, schedule: Q01DX009 (sc), vehicle: carboxymethylcellulose (CMC)): 151 % of control | T/C (endpoint: mean survival time, dose: 300.0 mg/kg/injection, schedule: Q03DX Z (ip), vehicle: water): 121 % of control | T/C (endpoint: mean survival time, dose: 350.0 mg/kg/injection, schedule: Q01DX001 (ip), vehicle: water): 116 % of control and 121 % of control | T/C (endpoint: mean survival time, dose: 350.0 mg/kg/injection, schedule: Q07DX Z (ip), vehicle: water): 109 % of control | T/C (endpoint: mean survival time, dose: 400.0 mg/kg/injection, schedule: Q01DX Z (sc), vehicle: carboxymethylcellulose (CMC)): 100 % of control | T/C (endpoint: mean survival time, dose: 500.0 mg/kg/injection, schedule: Q01DX001 (ip), vehicle: carboxymethylcellulose (CMC)): 150 % of control | T/C (endpoint: mean survival time, dose: 500.0 mg/kg/injection, schedule: Q## X003 (ip), vehicle: carboxymethylcellulose (CMC)): 95 % of control | T/C (endpoint: mean survival time, dose: 700.0 mg/kg/injection, schedule: Q01DX001 (ip), vehicle: water): 97 % of control | T/C (endpoint: mean survival time, dose: 750.0 mg/kg/injection, schedule: Q10DX003 (ip), vehicle: carboxymethylcellulose (CMC)): 157 % of control | T/C (endpoint: median survival time, dose: 12.5 mg/kg/injection, schedule: Q01DX009 (ip), vehicle: other): 122 % of control | T/C (endpoint: median survival time, dose: 25.0 mg/kg/injection, schedule: Q01DX009 (ip), vehicle: other): 122 % of control | T/C (endpoint: median survival time, dose: 200.0 mg/kg/injection, schedule: Q01DX009 (ip), vehicle: other): 150 % of control
